Experimental data reported in patent US11976075B2, “Inhibitors of the MYST family of lysine acetyl transferases” (Isosterix, Inc., priority 2022, dated 2024).

Target: T1, Recombinant KAT6A/MOZ (488-778) protein (Homo sapiens, UniProt Q92794)
T1 construct: Recombinant KAT6A/MOZ (488-778) protein (Active motif, Catalog #81223); purchased Active Motif 81223
Assay: Kat6a AlphaLISA Inhibition Screening Assay
Type: biochemical
Settings: 10′ pre-incubation; Table 2; read-out: Kat6A biochemical assay: IC50
Summary of the method: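 Recombinant KAT6A (488-778), 25 nM, was preincubated with compound (10-point dose response) for 60 or 10 min. It then reacted 120 min at room temperature with 200 nM biotin-H3(1-21) peptide and 400 nM acetyl-CoA, pH 8.0, with 330 nM TSA present. Acetylation was detected by AlphaLISA (anti-acetyl-lysine acceptor, streptavidin donor beads).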

T1 sequence (Q92794 488-778): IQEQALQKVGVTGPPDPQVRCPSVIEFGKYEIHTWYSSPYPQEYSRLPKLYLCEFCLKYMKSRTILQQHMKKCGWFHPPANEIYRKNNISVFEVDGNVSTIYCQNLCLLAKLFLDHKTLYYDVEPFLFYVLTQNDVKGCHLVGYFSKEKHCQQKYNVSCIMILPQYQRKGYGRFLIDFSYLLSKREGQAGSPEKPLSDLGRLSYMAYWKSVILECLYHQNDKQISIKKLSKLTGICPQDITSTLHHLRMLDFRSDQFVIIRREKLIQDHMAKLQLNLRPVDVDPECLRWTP

| Structure (SMILES) | IC50 |
| --- | --- |
| CCC(=O)NCc1ccn(Cc2cc(OC)c3c(NS(=O)(=O)CC4CCCCC4)noc3c2)n1 [Synthetic Example 9, N-((1-((3-((cyclohexylmethyl)sulfonamido)-4-methoxybenzo[d]isoxazol-6-yl)methyl)-1H-pyrazol-3-yl)methyl)propionamide] | ≤ 10 µM |

Same assay, conditions: 10′ pre-incubation; Table 3; read-out: Kat6A Biochemical assay: IC50

| Structure (SMILES) | IC50 |
| --- | --- |
| COc1cccc(OC)c1S(=O)(=O)Nc1nn(C)c2cc(Cn3cccn3)cc(OC)c12 [compound 123, N-(6-((1H-pyrazol-1-yl)methyl)-4-methoxy-1-methyl-1H-indazol-3-yl)-2,6-dimethoxybenzenesulfonamide] | 10 to 20 µM |

Same assay, conditions: 60′ pre-incubation; Table 2; read-out: Kat6A biochemical assay: IC50

| Structure (SMILES) | IC50 |
| --- | --- |
| C#CC(=O)NCc1cnn(Cc2cc(OC)n3c(NS(=O)(=O)c4ccccc4OC)nnc3c2)c1 [Synthetic Example 66, N-((1-((5-methoxy-3-((2-methoxyphenyl)sulfonamido)-[1,2,4]triazolo[4,3-a]pyridin-7-yl)methyl)-1H-pyrazol-4-yl)methyl)propiolamide] | ≤ 10 µM |
| C=CS(=O)(=O)N1Cc2cnn(Cc3cc(OC)c4c(NS(=O)(=O)c5ccccc5OC)noc4c3)c2C1 [Synthetic Example 27A, 2-methoxy-N-(4-methoxy-6-((5-(vinylsulfonyl)-5,6-dihydropyrrolo[3,4-c]pyrazol-1(4H)-yl)methyl)benzo[d]isoxazol-3-yl)benzenesulfonamide] | ≤ 10 µM |
| C#CC(=O)NCc1cnn(Cc2cc(OC)c3c(NS(=O)(=O)c4ccc(C(=O)OC)cc4)noc3c2)c1 [Synthetic Example 38, methyl 4-(N-(4-methoxy-6-((4-(propiolamidomethyl)-1H-pyrazol-1-yl)methyl)benzo[d]isoxazol-3-yl)sulfamoyl)benzoate] | ≤ 10 µM |
| COc1cc(Cn2ncc3c2CNC3)cc2onc(NS(=O)(=O)CC3CCCCC3)c12 [Synthetic Example 28A, 1-cyclohexyl-N-(6-((5,6-dihydropyrrolo[3,4-c]pyrazol-1(4H)-yl)methyl)-4-methoxybenzo[d]isoxazol-3-yl)methanesulfonamide] | ≤ 10 µM |
| C=CS(=O)(=O)NCc1ccn(Cc2cc(OC)c3c(NS(=O)(=O)c4c(OC)cccc4OC)noc3c2)n1 [Synthetic Example 19, 2,6-dimethoxy-N-(4-methoxy-6-((3-(vinylsulfonamidomethyl)-1H-pyrazol-1-yl)methyl)benzo[d]isoxazol-3-yl)benzenesulfonamide] | ≤ 10 µM |
| C=C(F)C(=O)NCc1ccn(Cc2cc(OC)c3c(NS(=O)(=O)CC4CCCCC4)noc3c2)n1 [Synthetic Example 23, N-((1-((3-((cyclohexylmethyl)sulfonamido)-4-methoxybenzo[d]isoxazol-6-yl)methyl)-1H-pyrazol-3-yl)methyl)-2-fluoroacrylamide] | ≤ 10 µM |

Same assay, conditions: 60′ pre-incubation; Table 3; read-out: Kat6A Biochemical assay: IC50

| Structure (SMILES) | IC50 |
| --- | --- |
| C#CC(=O)N1CCN(C(=O)c2cnn(Cc3cc(OC)c4c(NS(=O)(=O)c5cc(CC)ccc5OC)noc4c3)c2)CC1 [compound 95, 5-ethyl-2-methoxy-N-(4-methoxy-6-((4-(4-propioloylpiperazine-1-carbonyl)-1H-pyrazol-1-yl)methyl)benzo[d]isoxazol-3-yl)benzenesulfonamide] | ≤ 10 µM |
| C#CC(=O)N1CCN(c2cccc(-c3cc(OC)c4c(NS(=O)(=O)c5c(OC)cccc5OC)noc4c3)n2)CC1 [compound 96, 2,6-dimethoxy-N-(4-methoxy-6-(6-(4-propioloylpiperazin-1-yl)pyridin-2-yl)benzo[d]isoxazol-3-yl)benzenesulfonamide] | ≤ 10 µM |
| C#CC(=O)N1CC[C@@H](OCc2cc(OC)c3c(NS(=O)(=O)c4cc(CC)ccc4OC)noc3c2)C1 [compound 110, (R)-5-ethyl-2-methoxy-N-(4-methoxy-6-(((1-propioloylpyrrolidin-3-yl)oxy)methyl)benzo[d]isoxazol-3-yl) benzenesulfonamide] | ≤ 10 µM |
| COc1ccccc1S(=O)(=O)Nc1noc2cc(Cn3cc(CNS(=O)(=O)c4cccnc4Cl)cn3)cc(OC)c12 [compound 84, 2-chloro-N-((1((4methoxy3((2methoxyphenyl)sulfonamido)benzo[d]isoxazol-6-yl)methyl)-1H-pyrazol-4-yl)methyl) pyridine-3-sulfonamide] | ≤ 10 µM |
